# In patent publication US9006250B2, “4-amino-6-(heterocyclic)picolinates and 6-amino-2-(heterocyclic)pyrimidine-4-carboxylates and their use as herbicides” (Dow AgroSciences, LLC, priority 2013, dated 2015):
# System: ABUTH: velvetleaf (Abutilon theophrasti)
# Test: Post-Emergent Test II herbicidal activity
# Format: in vivo
# Conditions: post-emergence, 336 h, 35 g ai/ha, 14 days, read-out: Visual Growth Reduction (%) 14 Days After Application ABUTH
# Method: (§1) Post-Emergent Test II: Seeds or nutlets of the desired test plant species were planted in Sun Gro Metro-Mix® 360 planting mixture, which typically has a pH of 6.0 to 6.8 and an organic matter content of about 30 percent, in plastic pots with a surface area of 64 square centimeters. When required to ensure good germination and healthy plants, a fungicide treatment and/or other chemical or physical treatment was applied. The plants were grown for 7-21 d in a greenhouse with an approximate 15 h photoperiod which was maintained at about 23-29° C. during the day and 22-28° C. during the night. Nutrients and water were added on a regular basis and supplemental lighting was provided with overhead metal halide 1000-Watt lamps as necessary. The plants were employed for testing when they reached the first or second true leaf stage.
# (§2) A weighed amount, determined by the highest rate to be tested, of each test compound was placed in a 25 mL glass vial and was dissolved in 4 mL of a 97:3 v/v mixture of acetone and DMSO to obtain concentrated stock solutions. […] The concentrated stock solutions obtained were diluted with 20 mL of an aqueous mixture containing acetone, water, isopropyl alcohol, DMSO, Atplus 411F crop oil concentrate, and Triton® X-155 surfactant in a 48.5:39:10:1.5:1.0:0.02 v/v ratio to obtain spray solutions containing the highest application rates. Additional application rates were obtained by serial dilution of 12 mL of the high rate solution into a solution containing 2 mL of 97:3 v/v mixture of acetone and DMSO and 10 mL of an aqueous mixture containing acetone, water, isopropyl alcohol, DMSO, Atplus 411F crop oil concentrate, and Triton X®-155 surfactant in a 48.5:39:10:1.5:1.0:0.02 v/v ratio to obtain ½×, ¼×, ⅛× and 1/16× rates of the high rate. Compound requirements are based upon a 12 mL application volume at a rate of 187 liters per hectare (L/ha). Formulated compounds were applied to the plant material with an overhead Mandel track sprayer equipped with 8002E nozzles calibrated to deliver 187 L/ha over an application area of 0.503 square meters at a spray height of 18 inches […] above the average plant canopy height. Control plants were sprayed in the same manner with the solvent blank.
# (§3) The treated plants and control plants were placed in a greenhouse as described above and watered by subirrigation to prevent wash-off of the test compounds. After 14 d, the condition of the test plants as compared with that of the untreated plants was determined visually and scored on a scale of 0 to 100 percent where 0 corresponds to no injury and 100 corresponds to complete kill.
row,Compound,pest or weed control at 35 g/ha
1,COC(=O)c1nc(-c2ccc3nonc3c2Cl)cc(N)c1Cl [Compound 18],0 to 29%

# Same assay, conditions: post-emergence, 336 h, 70 g ai/ha, 14 days, read-out: Visual Growth Reduction (%) 14 Days After Application ABUTH
row,Compound,pest or weed control at 70 g/ha
1,COC(=O)c1nc(-c2ccc3nonc3c2Cl)cc(N)c1Cl [Compound 18],0 to 29%

# Same assay, conditions: post-emergence, 336 h, 140 g ai/ha, 14 days, read-out: Visual Growth Reduction (%) 14 Days After Application ABUTH
row,Compound,pest or weed control at 140 g/ha
1,COC(=O)c1nc(-c2ccc3nonc3c2Cl)cc(N)c1Cl [Compound 18],0 to 29%

# System: AMARE: redroot pigweed (Amaranthus retroflexus)
# Test: Post-Emergent Test II herbicidal activity
# Format: in vivo
# Conditions: post-emergence, 336 h, 35 g ai/ha, 14 days, read-out: Visual Growth Reduction (%) 14 Days After Application AMARE
# Method: as §1, §2, §3
row,Compound,pest or weed control at 35 g/ha
1,COC(=O)c1nc(-c2ccc3nonc3c2Cl)cc(N)c1Cl [Compound 18],95 to 100%

# Same assay, conditions: post-emergence, 336 h, 70 g ai/ha, 14 days, read-out: Visual Growth Reduction (%) 14 Days After Application AMARE
row,Compound,pest or weed control at 70 g/ha
1,COC(=O)c1nc(-c2ccc3nonc3c2Cl)cc(N)c1Cl [Compound 18],95 to 100%

# Same assay, conditions: post-emergence, 336 h, 140 g ai/ha, 14 days, read-out: Visual Growth Reduction (%) 14 Days After Application AMARE
row,Compound,pest or weed control at 140 g/ha
1,COC(=O)c1nc(-c2ccc3nonc3c2Cl)cc(N)c1Cl [Compound 18],95 to 100%

# System: BRSNN: oilseed rape, canola (Brassica napus)
# Test: Post-Emergent Test II herbicidal activity
# Format: in vivo
# Conditions: post-emergence, 336 h, 35 g ai/ha, 14 days, read-out: Visual Growth Reduction (%) 14 Days After Application BRSNN
# Method: as §1, §2, §3
row,Compound,pest or weed control at 35 g/ha
1,COC(=O)c1nc(-c2ccc3nonc3c2Cl)cc(N)c1Cl [Compound 18],60 to 74%

# Same assay, conditions: post-emergence, 336 h, 70 g ai/ha, 14 days, read-out: Visual Growth Reduction (%) 14 Days After Application BRSNN
row,Compound,pest or weed control at 70 g/ha
1,COC(=O)c1nc(-c2ccc3nonc3c2Cl)cc(N)c1Cl [Compound 18],75 to 84%

# Same assay, conditions: post-emergence, 336 h, 140 g ai/ha, 14 days, read-out: Visual Growth Reduction (%) 14 Days After Application BRSNN
row,Compound,pest or weed control at 140 g/ha
1,COC(=O)c1nc(-c2ccc3nonc3c2Cl)cc(N)c1Cl [Compound 18],75 to 84%

# System: CHEAL: lambsquarters (Chenopodium album)
# Test: Post-Emergent Test II herbicidal activity
# Format: in vivo
# Conditions: post-emergence, 336 h, 35 g ai/ha, 14 days, read-out: Visual Growth Reduction (%) 14 Days After Application CHEAL
# Method: as §1, §2, §3
row,Compound,pest or weed control at 35 g/ha
1,COC(=O)c1nc(-c2ccc3nonc3c2Cl)cc(N)c1Cl [Compound 18],75 to 84%

# Same assay, conditions: post-emergence, 336 h, 70 g ai/ha, 14 days, read-out: Visual Growth Reduction (%) 14 Days After Application CHEAL
row,Compound,pest or weed control at 70 g/ha
1,COC(=O)c1nc(-c2ccc3nonc3c2Cl)cc(N)c1Cl [Compound 18],85 to 94%

# Same assay, conditions: post-emergence, 336 h, 140 g ai/ha, 14 days, read-out: Visual Growth Reduction (%) 14 Days After Application CHEAL
row,Compound,pest or weed control at 140 g/ha
1,COC(=O)c1nc(-c2ccc3nonc3c2Cl)cc(N)c1Cl [Compound 18],95 to 100%

# System: CYPES: yellow nutsedge (Cyperus esculentus)
# Test: Post-Emergent Test II herbicidal activity
# Format: in vivo
# Conditions: post-emergence, 336 h, 35 g ai/ha, 14 days, read-out: Visual Growth Reduction (%) 14 Days After Application CYPES
# Method: as §1, §2, §3
row,Compound,pest or weed control at 35 g/ha
1,COC(=O)c1nc(-c2ccc3nonc3c2Cl)cc(N)c1Cl [Compound 18],0 to 29%

# Same assay, conditions: post-emergence, 336 h, 70 g ai/ha, 14 days, read-out: Visual Growth Reduction (%) 14 Days After Application CYPES
row,Compound,pest or weed control at 70 g/ha
1,COC(=O)c1nc(-c2ccc3nonc3c2Cl)cc(N)c1Cl [Compound 18],0 to 29%

# Same assay, conditions: post-emergence, 336 h, 140 g ai/ha, 14 days, read-out: Visual Growth Reduction (%) 14 Days After Application CYPES
row,Compound,pest or weed control at 140 g/ha
1,COC(=O)c1nc(-c2ccc3nonc3c2Cl)cc(N)c1Cl [Compound 18],30 to 44%

# System: ECHCG: barnyardgrass (Echinochloa crus-galli)
# Test: Post-Emergent Test II herbicidal activity
# Format: in vivo
# Conditions: post-emergence, 336 h, 35 g ai/ha, 14 days, read-out: Visual Growth Reduction (%) 14 Days After Application ECHCG
# Method: as §1, §2, §3
row,Compound,pest or weed control at 35 g/ha
1,COC(=O)c1nc(-c2ccc3nonc3c2Cl)cc(N)c1Cl [Compound 18],0 to 29%

# Same assay, conditions: post-emergence, 336 h, 70 g ai/ha, 14 days, read-out: Visual Growth Reduction (%) 14 Days After Application ECHCG
row,Compound,pest or weed control at 70 g/ha
1,COC(=O)c1nc(-c2ccc3nonc3c2Cl)cc(N)c1Cl [Compound 18],0 to 29%

# Same assay, conditions: post-emergence, 336 h, 140 g ai/ha, 14 days, read-out: Visual Growth Reduction (%) 14 Days After Application ECHCG
row,Compound,pest or weed control at 140 g/ha
1,COC(=O)c1nc(-c2ccc3nonc3c2Cl)cc(N)c1Cl [Compound 18],30 to 44%
